Measurements taken from the supplement of paper PMC10307832.

Assays:
Test in all cases: relative viability (nuclei count vs DMSO), 5 days (fraction); higher = more cells survive
[1] = compound: COc1cc([C@@H]2c3cc4c(cc3[C@@H](O[C@@H]3O[C@@H]5CO[C@@H](C)O[C@H]5[C@H](O)[C@H]3O)[C@H]3COC(=O)[C@H]23)OCO4)cc(OC)c1O [Etoposide] + CCNC(=O)c1noc(-c2cc(C(C)C)c(O)cc2O)c1-c1ccc(CN2CCOCC2)cc1 [Luminespib] (partner 0.01 µM)
In short: (§1)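 Relative viability equals treated-well nuclei counts divided by vehicle-well nuclei counts. Counts came from 4× images of lung cancer cell lines grown in 1536-well plates for 5 days after pin-tool dosing on the day after seeding. Dosing used one drug alone or a fixed anchor-drug dose plus five library-drug doses (not always all listed) in √10 steps, and values are medians of duplicate plates.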

[2] = compound: COc1cc([C@@H]2c3cc4c(cc3[C@@H](O[C@@H]3O[C@@H]5CO[C@@H](C)O[C@H]5[C@H](O)[C@H]3O)[C@H]3COC(=O)[C@H]23)OCO4)cc(OC)c1O [Etoposide] + CC(=O)c1c(C)c2cnc(Nc3ccc(N4CCNCC4)cn3)nc2n(C2CCCC2)c1=O [Palbociclib] (partner 0.5 µM)
In short: as §1

[3] = compound: CC1=C(N=C(N=C1N)[C@H](CC(=O)N)NC[C@@H](C(=O)N)N)C(=O)N[C@@H]([C@H](C2=CN=CN2)OC3C(C(C(C(O3)CO)O)O)OC4C(C(C(C(O4)CO)O)OC(=O)N)O)C(=O)N[C@H](C)[C@H]([C@H](C)C(=O)N[C@@H]([C@@H](C)O)C(=O)NCCC5=NC(=CS5)C6=NC(=CS6)C(=O)NCCC[S+](C)C)O [Bleomycin] + CS(=O)(=O)CCNCc1ccc(-c2ccc3ncnc(Nc4ccc(OCc5cccc(F)c5)c(Cl)c4)c3c2)o1 [Lapatinib] (partner 2 µM); conditions: main component drawn
In short: as §1

[4] = compound: COc1cc([C@@H]2c3cc4c(cc3[C@@H](O[C@@H]3O[C@@H]5CO[C@@H](C)O[C@H]5[C@H](O)[C@H]3O)[C@H]3COC(=O)[C@H]23)OCO4)cc(OC)c1O [Etoposide] + N=C(N)NC(=N)NCCc1ccccc1 [Phenformin] (partner 250 µM)
In short: as §1

Cell Line | relative viability ([1]; first compound 0.01 µM) | relative viability ([1]; first compound 0.03162 µM) | relative viability ([1]; first compound 0.1 µM) | relative viability ([1]; first compound 0.3162 µM) | relative viability ([1]; first compound 1 µM) | relative viability ([2]; first compound 0.01 µM) | relative viability ([2]; first compound 0.03162 µM) | relative viability ([2]; first compound 0.1 µM) | relative viability ([2]; first compound 0.3162 µM) | relative viability ([2]; first compound 1 µM) | relative viability ([3]; first compound 0.01 µM) | relative viability ([3]; first compound 0.03162 µM) | relative viability ([3]; first compound 0.1 µM) | relative viability ([3]; first compound 0.3162 µM) | relative viability ([3]; first compound 1 µM) | relative viability ([4]; first compound 0.01 µM) | relative viability ([4]; first compound 0.03162 µM) | relative viability ([4]; first compound 0.1 µM) | relative viability ([4]; first compound 0.3162 µM) | relative viability ([4]; first compound 1 µM)
NCI-H2405 | 0.646 | 0.65 | 0.949 | 0.664 | 0.301 | 0.536 | 0.549 | 0.355 | 0.477 | 0.328 | 0.836 | 1.01 | 0.889 | 0.357 | 0.262 | 0.381 | 0.432 | 0.415 | 0.364 | 0.283
NCI-H2009 | 1.03 | 0.961 | 1 | 0.644 | 0.476 | 0.203 | 0.213 | 0.145 | 0.25 | 0.148 | 0.808 | 0.892 | 0.92 | 0.379 | 0.365 | 0.492 | 0.505 | 0.492 | 0.416 | 0.342
HCC-15 | 0.473 | 0.303 | 0.366 | 0.15 | 0.178 | 0.623 | 0.695 | 0.828 | 0.468 | 0.244 | 0.808 | 0.801 | 0.806 | 0.299 | 0.223 | 0.496 | 0.526 | 0.429 | 0.152 | 0.132
HCC-44 | 1.03 | 0.84 | 0.774 | 0.411 | 0.279 | 0.99 | 0.94 | 1.02 | 0.947 | 0.701 | 0.648 | 0.429 | 0.228 | 0.193 | 0.145 | 0.215 | 0.156 | 0.134 | 0.198 | 0.112
COR-L23 | 0.573 | 0.802 | 0.536 | 0.214 | 0.153 | 0.23 | 0.27 | 0.27 | 0.261 | 0.146 | 0.707 | 0.776 | 0.294 | 0.14 | 0.115 | 0.394 | 0.479 | 0.434 | 0.287 | 0.155
NCI-H838 | 0.394 | 0.31 | 0.272 | 0.162 | 0.194 | 0.172 | 0.238 | 0.169 | 0.226 | 0.244 | 0.478 | 0.229 | 0.184 | 0.159 | 0.152 | 0.517 | 0.64 | 0.44 | 0.395 | 0.183
NCI-H2126 | 0.927 | 0.877 | 0.545 | 0.622 | 0.33 | 0.32 | 0.39 | 0.316 | 0.368 | 0.34 | 0.768 | 0.76 | 0.735 | 0.638 | 0.548 | 0.524 | 0.534 | 0.427 | 0.413 | 0.236
BEN | 0.235 | 0.583 |  | 0.206 | 0.245 | 0.491 | 0.487 |  | 0.454 | 0.539 | 0.72 | 0.709 | 0.913 | 0.571 | 0.542 | 0.249 | 0.266 |  | 0.264 | 0.289
EKVX | 0.921 | 0.885 | 0.444 | 0.658 | 0.307 | 0.358 | 0.434 | 0.21 | 0.375 | 0.282 | 0.211 | 0.209 | 0.187 | 0.127 | 0.166 | 0.262 | 0.271 | 0.196 | 0.254 | 0.178
LXF-289 | 0.569 | 0.861 | 0.79 | 0.367 | 0.129 | 0.618 | 0.606 | 0.621 | 0.487 | 0.331 | 0.807 | 0.884 | 0.635 | 0.206 | 0.179 | 0.568 | 0.534 | 0.585 | 0.421 | 0.153
ABC-1 | 0.35 | 0.648 | 0.33 | 0.351 | 0.29 | 0.572 | 0.71 | 0.529 | 0.515 | 0.419 | 1.01 | 1.03 | 1.23 | 1.01 | 0.961 | 0.239 | 0.244 | 0.241 | 0.201 | 0.171
NCI-H661 | 0.956 | 0.901 | 0.898 | 0.553 | 0.435 | 0.415 | 0.468 | 0.332 | 0.384 | 0.352 | 0.501 | 0.374 | 0.349 | 0.204 | 0.219 | 0.283 | 0.289 | 0.267 | 0.249 | 0.208
NCI-H1650 | 0.204 | 0.175 | 0.202 | 0.209 | 0.211 | 0.376 | 0.36 | 0.26 | 0.199 | 0.168 | 0.535 | 0.321 | 0.235 | 0.147 | 0.16 | 0.421 | 0.31 | 0.374 | 0.194 | 0.141
NCI-H2085 | 0.34 | 0.514 | 0.451 | 0.338 | 0.265 | 0.461 | 0.477 | 0.513 | 0.409 | 0.323 | 0.689 | 0.689 | 0.6 | 0.437 | 0.449 | 0.748 | 0.78 | 0.532 | 0.547 | 0.322
NCI-H1793 | 0.203 | 0.184 |  | 0.181 | 0.169 |  | 0.321 | 0.2 | 0.305 | 0.29 | 0.729 | 0.567 | 0.544 | 0.275 | 0.219 | 0.329 | 0.47 |  | 0.394 | 0.159
